Laboratory results reported in US7754445B2, “Method for the enzymatic production of a curing agent and its fluid state” (TMI Europe, priority 2001, dated 2010).

Test: monitoring the stability of the solution (hypothiocyanite concentration in water leaving the reactor)
Assay type: physicochemical
Text: The hypothiocyanite ions (OSCN^−) are able to react with the sulfhydryl groups of a 5,5′-dithiobis (2-nitrobenzoic acid) molecule which has previously been reduced in the presence of an excess of sodium borohydride.
This reduced molecule absorbs light at a wavelength of 412 nm.
When the hypothiocyanite ions (OSCN^−) oxidize the sulfhydryl groups, the absorbance at 412 nm decreases in proportion to the quantity of ions which are present in the sample, thereby enabling them to be quantified.
The methods described above are used to monitor the change in the concentration of hypothiocyanite ion, i.e. OSCN^−, in solutions leaving the reactor, the results of which are obtained are illustrated in FIGS. 3 and 4, which depict the curve for the changes in the concentration of hypothiocyanite ion, OSCN^−, in the water leaving the reactor over a period of 1 day (FIGS. 4) and 4 days (FIG. 3).

- concentration of OSCN^− (after 10 hours (FIG. 4)): 500 mM
- fall in concentration of OSCN^− (after 20 hours (FIG. 4)): 50%
- residual concentration of hypothiocyanite ion, relative to the initial concentration (after 80 hours (FIG. 3)): 16%
- concentration of OSCN^− (initial, solution leaving the reactor (FIG. 4)): 600 mM
Compound: N#CSO [OSCN^−, hypothiocyanite ion]
